Measured values published in patent US8222244B2, “Staurosporine derivatives as inhibitors of FLT3 receptor tyrosine kinase activity” (Novartis AG, priority 2001, dated 2012).

Biological target: T1, human Flt-3 (Homo sapiens, UniProt P36888)
T1 construct: expresses the amino acid region amino acids 563-993 of the intra-cytoplasmic kinase domains of human Flt-3; made in house; host or cells: Sf9 insect cells (baculovirus, pFbacG01 donor vector)
T1 sequence (P36888 563-993): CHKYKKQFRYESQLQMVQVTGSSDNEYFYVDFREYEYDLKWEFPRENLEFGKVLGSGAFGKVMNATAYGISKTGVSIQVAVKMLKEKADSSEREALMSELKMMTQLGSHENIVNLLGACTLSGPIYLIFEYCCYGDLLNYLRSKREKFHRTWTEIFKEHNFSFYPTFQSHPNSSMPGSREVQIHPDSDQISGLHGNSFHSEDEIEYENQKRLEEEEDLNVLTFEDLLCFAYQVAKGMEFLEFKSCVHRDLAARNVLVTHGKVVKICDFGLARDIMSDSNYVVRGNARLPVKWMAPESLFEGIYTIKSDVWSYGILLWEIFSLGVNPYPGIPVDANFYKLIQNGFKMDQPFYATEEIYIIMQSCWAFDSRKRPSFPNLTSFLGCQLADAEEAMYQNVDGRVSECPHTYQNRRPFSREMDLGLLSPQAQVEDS
Assay: Tyrosine protein kinase assay with purified GST-Flt-3 (33P incorporation)
Format: biochemical
Conditions: at a 1.0 micromolar concentration
Protocol: ATP into appropriate substrates.
The coding sequences for the cytoplasmic domain of Flt-3 was amplified by PCR from human c-DNA libraries (Clontech). The amplified DNA fragments and the pFbacG01 vector were made compatible for ligation by digestion with BamH1 and Hind III. […] The production of the viruses, the expression of proteins in Sf9 cells and the purification of the GST-fused proteins were performed as following:
(Generation of Bac- to Bac GST-fusion vectors); pFbacG01, pFbacGST2T and pFbacGSTx3 Bac-to-Bac™ donor vectors were generated from pAcG1, pAcG2T and pAcG3X respectively, which facilitate the expression of GST-fusion proteins with the possibility of cleavage with thrombin (pFbacGT2) or factor Xa (pFbacGSTx3) while pFbacG01 expresses no proteolytic cleavage site. These were generated in house by isolation of the DNA fragment containing the gene for GST with the C-terminal protease and restriction sites by restriction enzyme digestion of the relevant PharMingen baculovirus donor vector with EcoRV and EcoRI. This EcoRV/EcoRI fragment was ligated into the pFastBac1 vector which had been restriction digested with BamHI, blunt-ended by Klenow reaction and subsequently digested with EcoRI to generate a blunt-ended/EcoRI vector. (Production of virus); Transfer vectors containing the kinase domains were transfected into the DH10Bac cell line (GIBCO) and plated on selective agar plates. Colonies without insertion of the fusion sequence into the viral genome (carried by the bacteria) are blue. Single white colonies were picked and viral DNA (bacmid) isolated from the bacteria by standard plasmid purification procedures. Sf9 cells or Sf21 cells were then transfected in 25 cm^2 flasks with the viral DNA using Cellfectin reagent. (Determination of small scale protein expression in Sf9 cells); Virus containing media was collected from the transfected cell culture and used for infection to increase its titer. Virus containing media obtained after two rounds of infection was used for large-scale protein expression. For large-scale protein expression 100 cm^2 round tissue culture plates were seeded with 5×10^7 cells/plate and infected with 1 mL of virus-containing media (approx. 5 MOIs). After 3 days the cells were scraped off the plate and centrifuged at 500 rpm for 5 min. Cell pellets from 10-20, 100 cm^2 plates, were resuspended in 50 mL of ice-cold lysis buffer (25 mMTris-HCl, pH7.5, 2 mMEDTA, 1% NP-40, 1 mM DTT, 1 mMP MSF). The cells were stirred on ice for 15 min and then centrifuged at 5000 rpms for 20 min.
ATP 0.1 μCi). […] ATP into appropriate substrates. […] Subsequently, 40 μL of the reaction mixture were transferred onto Immobilon-PVDF membrane (Millipore, Bedford, Mass., USA) previously soaked for 5 min with methanol, rinsed with water, then soaked for 5 min with 0.5% H3PO4 and mounted on vacuum manifold with disconnected vacuum source. After spotting all samples, vacuum was connected and each well rinsed with 200 μL 0.5% H3PO4. Membranes were removed and washed 4× on a shaker with 1.0% H3PO4, once with ethanol. Membranes were counted after drying at ambient temperature, mounting in Packard TopCount 96-well frame, and addition of 10 μL/well of Microscint™ (Packard). […] One unit of protein kinase activity is defined as 1 nmole of ^33P ATP transferred from [γ^33P] ATP to the substrate protein per minute per mg of protein at 37° C.

Row | Flt3 Inhibition (percent inhibition of Flt3 kinase activity) | Compound
1 | 65% | CO[C@@H]1[C@H](N(C)C(=O)CNC(=O)OC(C)(C)C)C[C@H]2O[C@]1(C)n1c3ccccc3c3c4c(c5c6ccccc6n2c5c31)C(=O)NC4 [124078-43-9, [9S-(9a,10b,11b,13a)]-[2-[(2,3,10,11,12,13-Hexahydro-10-methoxy-9-methyl-1-oxo-9,13-epoxy-1H,9H-diindolo[1,2,3-gh:3′,2′,1′-lm]pyrrolo[3,4-j][1,7]benzodiazonin-11-yl)methylamino]-2-oxoethyl]-carbamic acid, 1,1-dimethylethyl ester]
2 | 97% | COC1C(N(C)C(=O)CN)CC2OC1(C)n1c3ccccc3c3c4c(c5c6ccccc6n2c5c31)C(=O)NC4.Cl (stereo not drawn) [124151-42-4, [9S-(9a,10b,11b,13a)]-2-Amino-N-(2,3,10,11,12,13-hexahydro-10-methoxy-9-methyl-1-oxo-9,13-epoxy-1H,9H-diindolo[1,2,3-gh:3′,2′,1′-lm]pyrrolo[3,4-j][1,7]benzodiazonin-11-yl)-N-methyl-acetamide, monohydrochloride]
3 | 52% | COC1C(N(C)C(=O)CNC(=O)OCc2ccccc2)CC2OC1(C)n1c3ccccc3c3c4c(c5c6ccccc6n2c5c31)C(=O)NC4 (centres unmarked) [125035-78-1, (9a,10b,11b,13a)-[2-[(2,3,10,11,12,13-Hexahydro-10-methoxy-9-methyl-1-oxo-9,13-epoxy-1H,9H-diindolo[1,2,3-gh:3′,2′,1′-lm]pyrrolo[3,4-j][1,7]benzodiazonin-11-yl)methylamino]-2-oxoethyl]-carbamic acid, phenylmethyl ester]
4 | 83% | CO[C@@H]1/C(=N/O)C[C@H]2O[C@]1(C)n1c3ccccc3c3c4c(c5c6ccccc6n2c5c31)C(=O)NC4 [126221-76-9, (9S,10R,11Z,13R)-2,3,9,10,12,13-Hexahydro-10-methoxy-9-methyl-9,13-epoxy-1H,11H-diindolo[1,2,3-gh:3′,2′,1′-lm]pyrrolo[3,4-j][1,7]benzodiazonine-1,11-dione, 11-oxime]
5 | 96% | CO[C@@H]1[C@H](N)C[C@H]2O[C@]1(C)n1c3ccccc3c3c4c(c5c6ccccc6n2c5c31)C(=O)NC4 [126221-77-0, (9S,10R,11R,13R)-11-Amino-2,3,10,11,12,13-hexahydro-10-methoxy-9-methyl-9,13-epoxy-1H,9H-diindolo[1,2,3-gh:3′,2′,1′-lm]pyrrolo[3,4-j][1,7]benzodiazonin-1-one]
6 | 63% | CO[C@@H]1[C@H](N(C)C(=O)c2ccccc2)C[C@H]2O[C@]1(C)n1c3ccccc3c3c4c(c5c6ccccc6n2c5c31)C(=O)NC4=O [154589-96-5, [9S-(9a,10b,11b,13a)]-N-(2,3,10,11,12,13-Hexahydro-10-methoxy-9-methyl-1,3-dioxo-9,13-epoxy-1H,9H-diindolo[1,2,3-gh:3′,2′,1′-lm]pyrrolo[3,4-j][1,7]benzodiazonin-11-yl)-N-methyl-benzamide]
7 | 89% | COC1C(N(C)C(=O)c2cccnc2)CC2OC1(C)n1c3ccccc3c3c4c(c5c6ccccc6n2c5c31)C(=O)NC4 (stereo not drawn) [155848-16-1, [9S-(9a,10b,11b,13a)]-N-(2,3,10,11,12,13-Hexahydro-10-methoxy-9-methyl-1-oxo-9,13-epoxy-1H,9H-diindolo[1,2,3-gh:3′,2′,1′-lm]pyrrolo[3,4-g][1,7]benzodiazonin-11-yl)-N-methyl-3-pyridinecarboxamide]
8 | 85% | COC1C(N(C)C(=O)c2cnccn2)CC2OC1(C)n1c3ccccc3c3c4c(c5c6ccccc6n2c5c31)C(=O)NC4 (stereo not drawn) [155848-17-2, [9S-(9a,10b,11b,13a)]-N-(2,3,10,11,12,13-Hexahydro-10-methoxy-9-methyl-1-oxo-9,13-epoxy-1H,9H-diindolo[1,2,3-gh:3′,2′,1′-lm]pyrrolo[3,4-g][1,7]benzodiazonin-11-yl)-N-methyl-pyrazinecarboxamide]
9 | 91% | COC1C(N(C)C(=O)c2ccc(O)cc2)CC2OC1(C)n1c3ccccc3c3c4c(c5c6ccccc6n2c5c31)C(=O)NC4 [165815-73-6, N-[(9S,10R,11R,13R)-2,3,10,11,12,13-Hexahydro-10-methoxy-9-methyl-1-oxo-9,13-epoxy-1H,9H-diindolo[1,2,3-gh:3′,2′,1′-lm]pyrrolo[3,4-j][1,7]benzodiazonin-11-yl]-4-hydroxy-N-methyl-benzamide]

Row | Compound | Flt3 Inhibition (percent inhibition of Flt3 kinase activity)
10 | COC1C(N(C)C(=O)c2ccc(C(=O)[O-])cc2)CC2OC1(C)n1c3ccccc3c3c4c(c5c6ccccc6n2c5c31)C(=O)NC4.[Na+] (stereo not drawn) [120751-44-2, [9S-(9a,10b,11b,13a)]-4-[[(2,3,10,11,12,13-Hexahydro-10-methoxy-9-methyl-1-oxo-9,13-epoxy-1H,9H-diindolo[1,2,3-gh:3′,2′,1′-lm]pyrrolo[3,4-j][1,7]benzodiazonin-11-yl)methylamino]carbonyl]-benzoic acid, monosodium salt] | 90%
11 | COC1C(N(C)C(=O)CCN)CC2OC1(C)n1c3ccccc3c3c4c(c5c6ccccc6n2c5c31)C(=O)NC4.Cl (stereo not drawn) [124078-41-7, [9S-(9a,10b,11b,13a)]-3-Amino-N-(2,3,10,11,12,13-hexahydro-10-methoxy-9-methyl-1-oxo-9,13-epoxy-1H,9H-diindolo[1,2,3-gh:3′,2′,1′-lm]pyrrolo[3,4-j][1,7]benzodiazonin-11-yl)-N-methyl-propanamide, monohydrochloride] | 99%
12 | COC1C(N(C)C(=O)C(C)OC2CCOCC2)CC2OC1(C)n1c3ccccc3c3c4c(c5c6ccccc6n2c5c31)C(=O)NC4 (stereo not drawn) [160251-50-3, [9S-[9a,10b,11b(S*),13a]]-N-(2,3,10,11,12,13-Hexahydro-10-methoxy-9-methyl-1-oxo-9,13-epoxy-1H,9H-diindolo[1,2,3-gh:3′,2′,1′-lm]pyrrolo[3,4-j][1,7]benzodiazonin-11-yl)-N-methyl-2-[(tetrahydro-2H-pyran-4-yl)oxy]-propanamide] | 89%
13 | CO[C@@H]1[C@H](N(C)C(=O)C(C)(C)OC2CCOCC2)C[C@H]2O[C@]1(C)n1c3ccccc3c3c4c(c5c6ccccc6n2c5c31)C(=O)NC4 [160251-55-8, [9S-(9a,10b,11b,13a)]-N-(2,3,10,11,12,13-Hexahydro-10-methoxy-9-methyl-1-oxo-9,13-epoxy-1H,9H-diindolo[1,2,3-gh:3′,2′,1′-lm]pyrrolo[3,4-j][1,7]benzodiazonin-11-yl)-N,2-dimethyl-2-[(tetrahydro-2H-pyran-4-yl)oxy]-propanamide] | 85%
14 | COC1C(N(C)C(=O)C(C)OC2CCOCC2)CC2OC1(C)n1c3ccccc3c3c4c(c5c6ccccc6n2c5c31)C(=O)NC4 (stereo not drawn) [160335-31-9, [9S-[9a,10b,11b(R*),13a]]-N-(2,3,10,11,12,13-Hexahydro-10-methoxy-9-methyl-1-oxo-9,13-epoxy-1H,9H-diindolo[1,2,3-gh:3′,2′,1′-lm]pyrrolo[3,4-j][1,7]benzodiazonin-11-yl)-N-methyl-2-[(tetrahydro-2H-pyran-4-yl)oxy]-propanamide] | 90%
